For 90 compounds, melting point results are on record in a melting point compilation (Tetko et al.; mined from patent text by program, amines drawn as free bases though some values may be those of a salt).

One may read the melting point as the temperature, or range, at which the solid turns liquid. Take `O=c1c2ccccc2nc2n1CS(=O)(=O)N2`: the melting point is above 300 °C.

On to `Cc1c2ccccc2c(-c2cc(Br)c(OC(Cc3ccccc3)C(=O)O)c(Br)c2)c2c1sc1ccccc12` (stereo not given), for which the melting point is 117 to 122 °C.

`O=c1nc(-c2ccccc2F)c2ccccc2[nH]1` gave a melting point of 281 to 285 °C.

The compound `COC(=O)CCC/C=C/c1ccc2cc(C)ccc2c1` registered a melting point of 50 °C.

Turning to `Cc1cc(SC(C)c2ccc3cn(-c4ccc(C(F)(F)F)cc4)nc3c2)ccc1OC(C)(C)C(=O)O` (racemic), the melting point was in the range of 114 to 116 °C.

On to `CC(Nc1ccccc1N)=C1C(=O)OC(=O)C(C(=O)C=Cc2ccc(O)cc2)=C1O`, for which the melting point is 223 to 225 °C.

In turn, `COc1ccc2c(c1)nnc1cc(OC)ccc12` returned a melting point of 200 to 202 °C.

In the case of `CN1CCCC(NC(=O)c2ccc3[nH]ncc3c2)C1` (stereo not given), the melting point was in the range of 228 to 229 °C.

Consider `CC(C)CN1C(=O)CCC(c2ccccc2Cl)c2cc(Cl)ccc21` (stereo not given), for which the melting point lay within 152 to 154 °C.

`CCOC(=O)/C(=C/c1conc1-c1ccc(OC)cc1OCc1ccccc1C(=O)OC)Cc1cc2c(cc1OC)OCO2` returned a melting point of 135 to 137 °C.

`CN(C)S(=O)(=O)C(Br)(Br)S(=O)(=O)c1ccccc1`: the melting point lay within 144 to 145 °C.

`COc1ccc(-n2c(=O)c(C(=O)Cl)nc3c(Cl)cccc32)cc1` showed a melting point of 131 to 134 °C.

For the compound `NC(=O)c1cc(Oc2cccc(CO)c2)ccn1`, the melting point was found to be 113 °C.

Consider `CC12C=CCC1C1CCC3=CC(=O)CCC3C1CC2` (stereo not given), for which the melting point was in the range of 67 to 71 °C.

`O=C(CC1c2ccccc2CCc2ccccc21)Nc1ccc(C(=O)O)cc1` had a melting point of 248 to 250 °C.

In turn, `Nc1ncnc2[nH]cc(-c3ccc(Oc4ccccc4)cc3)c12` showed a melting point of 272 °C.

For `COc1ccc2nc3sc(C(=O)O)cn3c(=O)c2c1`, the melting point was 247 to 248 °C.

`O=C(O)CCCCCCc1cn(-c2cccnc2)c2ccccc12`: the melting point lay in the range of 120 to 122 °C.

Consider `Cc1cc(=O)n(-c2cccc(Cl)c2)n1C`, for which the melting point lay in the range of 98 to 100 °C.

The compound `CC1(C)CCC(C)(C)c2cc(C(=O)Nc3ccc(I)cc3)ccc21` had a melting point of 224 °C.

For `C=CC(=O)OCc1c2ccccc2cc2ccccc12`, the melting point is 120 to 125 °C.

On to `C=CCOCC1CC(N)c2cc(S(N)(=O)=O)sc2S1(=O)=O` (stereo not given), for which the melting point fell in the range of 167 to 168 °C.

`Cc1ccc(S(=O)(=O)Oc2ccc(S(=O)(=O)C3(C(=O)C(C)C)CC3)cc2)cc1` came in with a melting point of 106 to 107 °C.

Take `COC(=O)c1cc(OCc2ccccc2)c2nc(C)n(C)c2c1`: the melting point was found to be 166 °C.

Compound `Cc1ccc2c(c1)C1CNCCC1N2` (stereo not given) had a melting point of 73 to 75 °C.

In the case of `CCCc1nc2ccc(C#N)cc2n1Cc1ccccc1Cl`, the melting point is 124 to 126 °C.

`COc1cc2c(cc1OCc1ccccc1)CCCCC2=O` registered a melting point of 95 to 96 °C.

`N#Cc1nn(-c2c(Cl)cc(C(F)(F)F)cc2Cl)c(N)c1-c1cc(Cl)cc(Cl)c1`: the melting point was 228 to 230 °C.

With `CCc1nc2c(C)cc(C)nc2n1Cc1ccc(C(=Cc2nnn[nH]2)c2ccc(C(F)(F)F)cc2)cc1`, the melting point was in the range of 124 to 129 °C.

Regarding `COc1ccc(C(=O)Nc2cc(NC(=O)c3cccc(Br)c3)ccc2C)cc1OC`, the melting point fell in the range of 136 to 138 °C.

As for `O=C1c2ccccc2C(=O)N1CCC=Cc1csc(-c2ccccn2)n1`, the melting point is 139 to 141 °C.

In turn, `COc1c(C)c(N2CCN(c3ccc(C(F)(F)F)cc3)CC2)c(C)c2c1OC(C)(C)C2` returned a melting point of 186 to 187 °C.

The compound `CC(=O)N1CCC(=O)NCc2cc([N+](=O)[O-])ccc21` registered a melting point of 253 to 256 °C.

Consider `CNc1c(CCO)cc(N)c([N+](=O)[O-])c1CCO`, for which the melting point was determined as 99 °C.

`CSc1ccccc1-n1ncc(-c2ccc(S(C)(=O)=O)cc2)c(-c2ccc(F)cc2)c1=O` yielded a melting point of 206 to 208 °C.

The compound `CC(C)(C)OC(=O)c1ncn2c1c(C(=O)N1CCCC1)cc1ccccc12` yielded a melting point of 216 to 218 °C.

In the case of `COc1ccc(CN(C)CCc2ccc(NC(=O)c3cccc4c(=O)c5ccccc5[nH]c34)cc2)cc1OC`, the melting point worked out at 172 °C.

`COc1cc(NC(=O)CC23CC4CC(CC(C4)C2)C3)cc(OC)c1` registered a melting point of 144 to 146 °C.

In turn, `O=C1C(Br)=C(c2cn(S(=O)(=O)c3ccccc3)c3ccccc23)C(=O)N1COCc1ccccc1` gave a melting point of 49 to 51 °C.

Turning to `CCC(CC)c1ccc(Cl)c2nc(Nc3c(C)cc(Cl)cc3OC)n(CC(=O)OC(C)C)c12`, the melting point fell in the range of 205 to 207 °C.

Turning to `Cc1nnc2n1-c1ccc(Cl)cc1C(N1CCCCC1)=NC2`, the melting point was 238 to 243 °C.

The compound `COC(=O)c1nc(-c2ccc(Cl)c(F)c2F)nc(N)c1Br` showed a melting point of 175 to 178 °C.

`CCCOc1ccc(C(C)=O)cc1C(=O)OC`: the melting point amounted to 49 °C.

In turn, `O=C(OCCc1ccc([N+](=O)[O-])cc1)C1Cc2c(ccc3[nH]ccc23)N1` (stereo not given) showed a melting point of 192 to 194 °C.

With `I/C(=C/C=C(/I)SCc1ccccc1)SCc1ccccc1`, the melting point lay within 111 to 112 °C.

In the case of `Cc1oc(-c2ccccc2)nc1COc1ccc2cc(CCCC3SC(=O)NC3=O)ccc2c1` (stereo not given), the melting point is 208 to 209 °C.

Compound `O=C(c1c(Cl)cccc1Cl)n1ccnc1-c1ccccc1` gave a melting point of 110 to 114 °C.

`O=c1c2ccccc2ccn1Cc1ccc(F)cc1` registered a melting point of 107 °C.

`O=C(O)Cc1ccc2c(c1)CCc1ccccc1S2`: the melting point was 111 to 112 °C.

Compound `O=c1cc(-c2ccc(O)nc2)oc2ccccc12` came in with a melting point of 296 to 297 °C.

`COc1ccc2c3c1OC1C(=O)C=CC4C(C2)N(C)CCC314` (stereo not given) came in with a melting point of 177 to 180 °C.

Take `COc1ccc(NC(=O)c2ccc(-c3ccc(-c4noc(C)n4)cc3C)cc2)cc1S(=O)CCN(C)C` (stereo not given): the melting point lay within 204 to 206 °C.

As to `O=C(O)CCCCNC(=O)NCCCCC1CCSS1` (stereo not given), the melting point was in the range of 125 to 132 °C.

Consider `C=C[Si]12OC3CC(CC(C3)O1)O2`, for which the melting point was found to be 116 °C.

Compound `CNc1nc2ccccc2c2c1ncn2C` came in with a melting point of 216 to 218 °C.

Regarding `CCOC(=O)c1nnn(O)n1`, the melting point lay in the range of 75 to 78 °C.

On to `CCOC(=O)c1cn(-c2ccc(F)cn2)c2nc(N3CC(C)NC(C)C3)c(F)cc2c1=O` (stereo not given), for which the melting point was determined as 165 °C.

`N#Cc1ccc2c(c1)N=Cc1ccccc1O2`: the melting point fell in the range of 158 to 159 °C.

`CS(=O)(=O)c1cc(C(=O)O)cc(N=Cc2ccco2)c1Cl` came in with a melting point of 221 °C.

`CC(C)C1=C(Cl)C(=O)c2ccccc2C1=O` came in with a melting point of 57 to 59 °C.

The compound `CN1CC[C@@H](c2c(O)cc(O)c3c(=O)cc(-c4cccs4)oc23)[C@@H]1CO` showed a melting point of 218 to 220 °C.

Compound `c1ccc2c(N3CCNCC3)nsc2c1` gave a melting point of 88 to 90 °C.

For the compound `CON=C(C(=O)O)c1cccc(OCc2ccccc2Cl)c1OCc1ccccc1Cl`, the melting point lay in the range of 97 to 99 °C.

For `O=c1n(C2CCOC2)cc(-c2ccncc2)n1-c1ccc(F)cc1` (stereo not given), the melting point fell in the range of 132 to 134 °C.

For the compound `COc1cc(Nc2nc3cccc(-c4ccc(NS(C)(=O)=O)cc4)c3o2)cc(OC)c1OC`, the melting point is 222 to 225 °C.

Compound `Cc1cc(-c2[nH]nc3c2C(=O)c2c(NC(N)=O)cccc2-3)c(C)s1` registered a melting point above 280 °C.

For the compound `NCCc1cc2c(-c3ccccc3)c(CC(=O)Nc3ccc(Cl)cc3C(F)(F)F)c(=O)oc2cc1Cl`, the melting point is 165 to 167 °C.

Take `COC(=O)c1c(OC)c(OC)c2oc(C)cc(=O)c2c1OC`: the melting point was 125 °C.

`O=C1Nc2cc(Br)ccc2N2CCc3cccc1c32` had a melting point of 255 to 257 °C.

`CC(=O)N1CCc2c([nH]c3ccccc23)C1CCCCl` (stereo not given) showed a melting point of 166 to 168 °C.

For `CS(=O)(=O)Nc1cccc(S(=O)(=O)N2CCC(Nc3nc(Nc4cccc(C(F)(F)F)c4)nc(OCC(F)(F)F)n3)CC2)c1`, the melting point is 249 to 251 °C.

Take `COC(=O)C(C)(C)CC(=O)CCc1ccc(Cl)cc1`: the melting point lay in the range of 52 to 54 °C.

For `COc1ccc2c(c1)C(C(=O)N(Cc1ccc(S(C)(=O)=O)cc1)c1ccc(C(C)C)cc1)CCC2` (stereo not given), the melting point is 131 to 132 °C.

In the case of `O=c1[nH]c2ccc(S(=O)CCN3CCC(O)(Cc4ccccc4)CC3)cc2o1` (stereo not given), the melting point lay within 138 to 140 °C.

`CCSCc1cnn(-c2c(Cl)cc(C(F)(F)F)cc2Cl)n1`: the melting point lay in the range of 53 to 54 °C.

For `CNC(=O)c1nnn(Cc2ccccc2)c1N`, the melting point fell in the range of 151 to 153 °C.

Compound `CC(C)c1cc(-c2ccccc2)nc(-c2ccc(F)cc2)c1C=C(Br)Br` yielded a melting point of 124 to 126 °C.

In turn, `COc1ccc(F)cc1NC(=O)Nc1ccc(N2CCN(C(=O)Nc3ccc(OCCO)cc3C(F)(F)F)CC2)cc1` came in with a melting point of 140 to 141 °C.

`COc1ccc(C=C(C#N)c2ccncc2)cc1OC1CCCC1` yielded a melting point of 125 to 127 °C.

Regarding `CONC(=N)c1nc(Cl)c(-c2c(F)cc(F)cc2F)c(N2CCCO2)n1`, the melting point lay within 192 to 193 °C.

In the case of `Cn1c2c(n(C)c1=O)CC(=NNC(=N)N)C=C2`, the melting point was determined as 238 °C.

With `Nc1ccc(CCc2cscn2)cc1`, the melting point fell in the range of 69 to 70 °C.

As for `Cc1ccc(-c2ccc3c(c2)C=C(C(=O)Nc2ccc(C(O)CN4CCCCC4)cc2)CCO3)cc1` (stereo not given), the melting point is 212 to 213 °C.

`CCOC(=O)C(Cc1cc2cc(C#N)ccc2o1)c1ccc(O)cc1` (stereo not given) showed a melting point of 140 to 142 °C.

The compound `N#Cc1nc(Cl)nc(N2CCS(=O)(=O)CC2)c1Cl` returned a melting point of 198 to 199 °C.

Consider `OCCc1nccn1CCCc1cccc(O)c1`, for which the melting point is 111 to 113 °C.

`CCCc1c(OCCCCCOc2ccccc2/C=C/C(=O)O)ccc2c1OCCC2=O`: the melting point was in the range of 123 to 126 °C.

With `CCOP(=O)(/C=C/c1cn(-c2ccccc2)nc1OCc1ccc(OCc2csc(N3CCOCC3)n2)c(OC)c1)OCC`, the melting point lay within 93 to 94 °C.

On to `CC(C)(C)OCC1CNC(=O)O1` (stereo not given), for which the melting point was in the range of 57 to 65 °C.

In the case of `COC(=O)Nc1ccc(O)c(Cl)c1`, the melting point lay in the range of 96 to 98 °C.
